Data on six molecules can be found in ChEMBL document CHEMBL5375987, “Structural Fusion of Natural and Synthetic Ligand Features Boosts RXR Agonist Potency” (J Med Chem, 2023).

Each structure is given as a SMILES string. In brackets after ≈: the same amount, converted by molar mass.

For data set [1], the target named is T1, Retinoic acid receptor RXR-beta (Homo sapiens, UniProt P28702).
T1 sequence (P28702 whole entry): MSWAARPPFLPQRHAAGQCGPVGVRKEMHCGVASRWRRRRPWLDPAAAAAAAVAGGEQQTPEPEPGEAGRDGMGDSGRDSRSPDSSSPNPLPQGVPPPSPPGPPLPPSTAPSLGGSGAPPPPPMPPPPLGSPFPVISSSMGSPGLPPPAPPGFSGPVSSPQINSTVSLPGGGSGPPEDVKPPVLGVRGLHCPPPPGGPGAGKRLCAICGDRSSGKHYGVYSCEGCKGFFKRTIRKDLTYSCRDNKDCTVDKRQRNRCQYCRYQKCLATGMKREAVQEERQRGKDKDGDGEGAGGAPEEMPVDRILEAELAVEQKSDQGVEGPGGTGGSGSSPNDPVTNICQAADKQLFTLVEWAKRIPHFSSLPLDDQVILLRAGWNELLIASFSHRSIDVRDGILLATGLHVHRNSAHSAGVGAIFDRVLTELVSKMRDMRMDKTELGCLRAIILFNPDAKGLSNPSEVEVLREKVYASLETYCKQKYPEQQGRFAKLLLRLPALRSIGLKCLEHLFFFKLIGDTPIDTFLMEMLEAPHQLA
Description: Agonist activity at full length human RXR beta expressed in HEK293T cells measured after 16 hrs by Dual-glo luciferase assay. Type of data set: cell-based.

The target in data set [2] is T2, Retinoic acid receptor RXR-alpha (Homo sapiens, UniProt P19793).
T2 sequence (P19793 whole entry): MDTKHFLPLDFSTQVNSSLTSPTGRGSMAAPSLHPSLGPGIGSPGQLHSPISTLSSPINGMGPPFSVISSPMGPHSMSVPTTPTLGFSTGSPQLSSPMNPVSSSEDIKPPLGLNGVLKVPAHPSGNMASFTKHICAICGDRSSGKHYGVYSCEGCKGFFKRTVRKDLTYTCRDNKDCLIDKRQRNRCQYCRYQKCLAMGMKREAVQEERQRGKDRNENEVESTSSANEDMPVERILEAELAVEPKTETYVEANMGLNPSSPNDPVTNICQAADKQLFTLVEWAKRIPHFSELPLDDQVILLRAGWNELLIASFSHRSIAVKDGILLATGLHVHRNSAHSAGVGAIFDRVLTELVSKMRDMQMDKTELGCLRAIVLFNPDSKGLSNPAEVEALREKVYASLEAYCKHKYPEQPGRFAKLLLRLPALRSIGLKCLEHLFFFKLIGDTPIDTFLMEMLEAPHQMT
Description: Agonist activity at full length human RXR alpha expressed in HEK293T cells measured after 16 hrs by Dual-glo luciferase assay

Data set [3] has as its target T3, Retinoic acid receptor RXR-gamma (Homo sapiens, UniProt P48443).
T3 sequence (P48443 whole entry): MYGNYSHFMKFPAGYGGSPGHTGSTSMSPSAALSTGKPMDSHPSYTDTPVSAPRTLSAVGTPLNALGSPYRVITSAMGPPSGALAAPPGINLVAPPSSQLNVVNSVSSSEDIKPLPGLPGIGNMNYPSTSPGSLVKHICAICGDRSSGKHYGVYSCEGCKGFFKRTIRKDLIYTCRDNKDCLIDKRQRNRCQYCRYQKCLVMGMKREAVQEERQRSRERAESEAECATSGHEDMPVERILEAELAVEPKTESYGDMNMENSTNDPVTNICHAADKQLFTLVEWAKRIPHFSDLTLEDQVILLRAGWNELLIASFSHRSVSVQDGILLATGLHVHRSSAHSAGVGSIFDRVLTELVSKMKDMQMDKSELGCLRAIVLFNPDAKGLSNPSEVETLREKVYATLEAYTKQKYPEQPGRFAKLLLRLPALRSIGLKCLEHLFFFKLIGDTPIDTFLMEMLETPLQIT
Description: Agonist activity at full length human RXR gamma expressed in HEK293T cells measured after 16 hrs by Dual-glo luciferase assay. In kind it is cell-based.

Data set [4] is described as follows: Microsomal stability in Sprague-Dawley rat liver microsomes assessed as half life at 10 uM in presence of NADPH by HPLC-UV method. Type of data set: ADME, Microsome.
For data set [5], the target named is T4, Nuclear receptor subfamily 1 group I member 3 (Homo sapiens, UniProt Q14994).
T4 sequence (Q14994 whole entry): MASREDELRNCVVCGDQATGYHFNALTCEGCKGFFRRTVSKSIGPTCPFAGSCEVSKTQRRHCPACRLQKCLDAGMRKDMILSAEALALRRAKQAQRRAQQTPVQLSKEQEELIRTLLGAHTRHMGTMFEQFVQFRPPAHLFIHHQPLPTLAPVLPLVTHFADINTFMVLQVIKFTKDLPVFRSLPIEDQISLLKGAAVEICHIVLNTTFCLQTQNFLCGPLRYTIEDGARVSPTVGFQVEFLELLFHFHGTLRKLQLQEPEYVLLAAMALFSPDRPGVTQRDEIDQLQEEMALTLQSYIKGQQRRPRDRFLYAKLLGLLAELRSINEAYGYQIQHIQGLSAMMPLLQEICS
Description: Antagonist activity at NR1I3 (unknown origin) at 1 uM.

The target of data set [6] is T4, Nuclear receptor subfamily 1 group I member 3. Description: Agonist activity at NR1I3 (unknown origin) at 1 uM.
Data set [7] in a line: Thermodynamic aqueous solubility of compound at 24 degreeC measured after 24 hrs by SpectraMax M5e plate reader analysis. In kind it is physicochemical. The following applies: aqueous medium, read-out: Therm_solubility.
Data set [8] deals with T4, Nuclear receptor subfamily 1 group I member 3. Description: Inverse agonist activity at NR1I3 (unknown origin) at 1 uM.
Data set [9] is described as follows: Microsomal stability in Sprague-Dawley rat liver microsomes assessed as compound remaining at 10 uM measured auto 60 mins in presence of NADPH by HPLC-UV method. In kind it is ADME, Microsome. The following applies: read-out: Stability.
In data set [10] the test system is COS-7. Description: Cytotoxicity against green monkey COS-7 cells assessed as inhibition of cell growth at upto 30 uM measured after 24 hrs CCK-8 method. In kind it is toxicity, cell-based. Particulars: chlorocebus aethiops, cos-7, 24 h; call rule not given here.

In [1], `C/C(C(=O)O)=C(/C)c1nc(-c2ccccc2)c(-c2ccccc2)o1` yielded an EC50 of 1.9 µM.
On the same count and under the same terms, the same measure for `C/C(=C\C(=O)O)c1nc(-c2ccccc2)c(-c2ccccc2)o1`: 7.4 µM.
With `O=C(O)/C=C/c1nc(-c2ccccc2)c(-c2ccccc2)o1`, the EC50 in [1] was found to be 13.1 µM; in data set [2], 13 µM.
In turn, `O=C(O)/C=C/c1nc(-c2ccccc2)c(-c2cc(C(F)(F)F)cc(C(F)(F)F)c2)o1` displayed an EC50 in [3] of 57 nM.
Turning to `O=C(O)[C@@H]1C[C@H]1c1nc(-c2ccccc2)c(-c2cc(C(F)(F)F)cc(C(F)(F)F)c2)o1` (racemic), the half-life at 10 µM in data set [4] is greater than 120 min. Also, the Activity result is listed as “Not Active” in data set [5], “Not Active” in data set [6], “Not Active” in [8] and “Non-Toxic” in [10]. The solubility thermodynamic at 24 h in data set [7] came to 18.3 µM (≈ 8.08 µg/mL). For the same molecule, the remaining at 1 h, 10 µM in data set [9] came out at 79%.
For the molecule `OC[C@@H]1C[C@H]1c1nc(-c2ccccc2)c(-c2cc(C(F)(F)F)cc(C(F)(F)F)c2)o1` (racemic), the solubility thermodynamic at 24 h in data set [7] worked out at 5.8 µM (≈ 2.48 µg/mL).
